Measured values: US7420060B2, “Benzopyran derivatives substituted with a thioxobenzoxazole derivative, pharmaceutically acceptable salts thereof, their preparations and pharmaceutical compositions containing them” (Schaeffler KG, priority 2003, dated 2008)

Columns and labels:
[1] = tested on: ischemic heart isolated from white rat; experiment: Cardioprotective effect on isolated ischemic rat heart (Langendorff, 30 min global ischemia / 30 min reperfusion); conditions: 10 μM; for LDH (concentration of lactate dehydogenase): after 30 min reperfusion; for EDP (left ventricular end diastolic pressure): after reperfusion, baseline set at 5 mmHg; for LVDP × HR (left ventricular developed pressure × heart rate): reperfusion DP as % of pre-treatment DP, 30 min after reperfusion
Method: 100 mg/kg of sodium pentobarbital was injected in abdominal cavity of white male rats (300˜450 g, obtained form the experimental animal team of the Korea Research Institute of Chemical Technology) to anesthetize them. Then, an intravenous injection of 1000 U/kg of heparin was performed before taking out heart. Particularly, cannula(PE 240) was inserted in the trachea, and artificial respiration was tried upon the rat by using a rodent ventilator. Under that condition, aortic cannula was inserted in the aorta and heart was taken out under retrograde perfusion. The extracted heart was hung on Langendorff apparatus quickly and unnecessary tissues on heart were removed. Perfusion was induced under static pressure (85 mmHg) with 37° C. modified Krebs-Henseleit bicarbonate buffer (composition <mM/L>: 116 NaCl, 4.7 KCl, 1.1 MgSO4, 1.17 KH2PO4, 24.9 NaHCO3, 2.52 CaCl2, 8.32 Glucose, 2.0 Pyruvate) saturated with 95% O2/5% CO2. A metal cannula, to which a latex balloon filled with an ethanol-distilled water mixture (1:1 vol/vol) was linked, was inserted in left ventricle through pulmonary vein. Then, left ventricular pressure transmitted through the balloon was transduced by using pressure transducer, and amplified by using Plugsys bridge amplifier isovolumetrically. Then, the pressure was recorded in a recorder (Linearcorder mark 8 WR 3500). Thereafter, heart was stabilized for 15 minutes. Then, left ventricular end diastolic pressure (LVEDP) was given by 5 mmHg and such volume of the balloon was kept all through the experiments.
Baseline cardiac contractile function, heart rate (HR), and coronary flow (CF) were measured. Cardiac contractile function was calculated by […], yielding LVDP (left ventricular developed pressure). Double product RPP (rate-pressure product)(DP), another important parameter for indirectly assessing cardiac performance in Langendorff heart, whose cardiac output could not be measured ordinarily, was calculated by multiplying HR by LVDP. Throughout the experiment, total coronary blood flow was measured by the use of coronary flow probe (diameter: 1.0 mm) installed in aortic cannula with electromagnetic flowmeter. Temperature of heart was steadily maintained by immersing the heart at 37° C. in physiological saline solution to which 95% O2/5% CO2 was constantly supplied. After stabilization for 15 min, the hearts were pre-treated for 10 min with vehicle (0.04% DMSO) only or a compound of the present invention or the control material in the vehicle. Thereafter, cardiac contractile function, HR and CF were repeatedly measured. Global ischemia was induced by completely shutting off the perfusate for 30 min. Severity of ischemia was determined as the time to contracture (TTC, min) during global ischemia in which the first 5 mmHg increase in EDP was observed. Then, the hearts were reperfused and, 30 min later, contractile functions (LVDP, HR and CF) were repeatedly measured. After reperfusion was accomplished for 30 min, LDH (lactate dehydrogenase) was measured with a kit as a sensitive index for loss of cell viability.

[2] = tested on: ischemic myocardial injury models prepared from white rats; experiment: Antiischemic activity in the anesthetized rat ischemic myocardial injury model (coronary occlusion 45 min / reperfusion 90 min); format: in vivo; conditions: 0.3 mg/kg, intravenous (femoral vein), 30 min before occlusion
Method: 75 mg/kg of sodium pentobarbital was injected in abdominal cavity of white male rats (350-450 g, Laboratory Animal Division, Korea Research Institute of Chemical Technology) to anesthetize them. After performing tracheotomy, artificial respiration was induced by 10 ml/kg of stroke volume and 60/min. of heart rate. Cannula was inserted in each of vena fermoralis and aorta fermoralis, through which medicines were administered and blood pressure was measured. In the meantime, since body temperature in a ischemic myocardial injury model was very important factor, directly influencing a result, the temperature of a rat was always kept at 37° C. by using a probe for measuring body temperature inserted in rectum and homeothermic blanket control unit. Mean arterial blood pressure and heart rate (HR) of the rat were measured all through the experiments. Statham P23XL pressure transducer (Grass Ins., MA., USA) was used for measuring blood pressure and ECG/RATE Coupler (Hugo Sachs Electronic, Germany) was used for measuring HR. In addition, all the changes were recorded successively by graphtec linearcorder chart recorder (Graphtec Linearcorder WR 3310, Hugo Sachs Electronic).
According to the method of Selye H, left coronary aorta was occluded as follows. Left thoracotomy was induced. That is, the chest of a rat was a little opened. The right chest of the anesthetized rat was pressurized by the middle finger of left hand, so that the heart was pushed out. The heart was fixed gently by the thumb and the index finger of the left hand. A stitch was carefully put on a part including left anterior descending coronary artery by a suture needle with operating thread (5-0 silk ligature), and the heart was quickly positioned again in thoracic cavity. Then, both ends of operating thread were exposed outside. Both ends of operating thread were passed through PE tube (PE100, 2.5 cm) and left for 20 minutes for stabilization. A vehicle or a medicine was administered through the cannula inserted in femoral vein, which was left for 30 minutes in order for the medicine to work thoroughly. BMS-180448 was used for a control group and the dosage of each test medicine and a control medicine was 0.3 mg/kg each. […]
The coronary artery was reoccluded according to the above method and 2 ml of 1% Evans blue solution was administered by intravenous injection. […] The surface of each slice was inputted in a computer by using Hi-scope, a compact micro vision system, and Image pro plus program, from which both normal blood flow tissue area stained by blue and non-stained area on each slice were measured. The ratio of non-stained area to the gross area of each slice was calculated, by which the weight of each slice was multiplied to calculate AAR (area at risk) of each slice. […]

[3] = during 30 min global ischemia, first 5 mmHg increase in EDP

Compound: CC1(C)Oc2ccc(C#N)cc2[C@@H](NC(=NC#N)Nc2ccc(Cl)cc2)[C@@H]1O [BMS-180448, reference compound]
- LDH (concentration of lactate dehydogenase) [1]: 17.2 unit/g
- EDP (left ventricular end diastolic pressure) [1]: 16.5 mmHg
- TTC (time to induce contraction / time to contracture) [1, 3]: 27.8 min
- LVDP × HR (left ventricular developed pressure × heart rate) [1]: 67.6%
- IZ/AAR(%) myocardial infarction size to area at risk [2]: 39.1%

Compound: COC(OC)[C@]1(C)Oc2ccc([N+](=O)[O-])cc2[C@H](n2c(=S)oc3ccccc32)[C@H]1O [Example 1, (2R,3R,4S)-6-nitro-3,4-dihydro-3-hydroxy-2-dimethoxymethyl-2-methyl-4-(2-thioxobenzoxazol-3-yl)-2H-1-benzopyran]
- LDH (concentration of lactate dehydogenase) [1]: 4.6 unit/g
- EDP (left ventricular end diastolic pressure) [1]: 19.8 mmHg
- TTC (time to induce contraction / time to contracture) [1, 3]: 25.3 min
- LVDP × HR (left ventricular developed pressure × heart rate) [1]: 53.8%
- IZ/AAR(%) myocardial infarction size to area at risk [2]: 39.6%

Compound: COC(OC)[C@]1(C)Oc2ccc([N+](=O)[O-])cc2[C@@H](n2c(=S)oc3ccccc32)[C@@H]1O [Example 2, (2R,3S,4R)-6-nitro-3,4-dihydro-3-hydroxy-2-dimethoxymethyl-2-methyl-4-(2-thioxobenzoxazol-3-yl)-2H-1-benzopyran]
- LDH (concentration of lactate dehydogenase) [1]: 17.9 unit/g
- EDP (left ventricular end diastolic pressure) [1]: 29.3 mmHg
- TTC (time to induce contraction / time to contracture) [1, 3]: 24.4 min
- LVDP × HR (left ventricular developed pressure × heart rate) [1]: 57.6%

Compound: COC(OC)[C@@]1(C)Oc2ccc([N+](=O)[O-])cc2[C@H](n2c(=S)oc3ccccc32)[C@H]1O [Example 3, (2S,3R,4S)-6-nitro-3,4-dihydro-3-hydroxy-2-dimethoxymethyl-2-methyl-4-(2-thioxobenzoxazol-3-yl)-2H-1-benzopyran]
- LDH (concentration of lactate dehydogenase) [1]: 12.6 unit/g
- EDP (left ventricular end diastolic pressure) [1]: 15.3 mmHg
- TTC (time to induce contraction / time to contracture) [1, 3]: 26.6 min
- LVDP × HR (left ventricular developed pressure × heart rate) [1]: 66.8%

Compound: COC(OC)[C@]1(C)Oc2ccc([N+](=O)[O-])cc2[C@H](n2c(=S)oc3cc(C)ccc32)[C@H]1O [Example 5, (2R,3R,4S)-6-nitro-3,4-dihydro-3-hydroxy-2-dimethoxymethyl-2-methyl-4-(6-methyl-2-thioxobenzoxazol-3-yl)-2H-1-benzopyran]
- LDH (concentration of lactate dehydogenase) [1]: 20.2 unit/g
- EDP (left ventricular end diastolic pressure) [1]: 21.0 mmHg
- TTC (time to induce contraction / time to contracture) [1, 3]: 29.0 min
- LVDP × HR (left ventricular developed pressure × heart rate) [1]: 47.4%

Compound: COC(OC)[C@]1(C)Oc2ccc([N+](=O)[O-])cc2[C@H](n2c(=S)oc3cccc(C)c32)[C@H]1O [Example 6, (2R,3R,4S)-6-nitro-3,4-dihydro-3-hydroxy-2-dimethoxymethyl-2-methyl-4-(4-methyl-2-thioxobenzoxazol-3-yl)-2H-1-benzopyran]
- LDH (concentration of lactate dehydogenase) [1]: 9.6 unit/g
- EDP (left ventricular end diastolic pressure) [1]: 6.3 mmHg
- TTC (time to induce contraction / time to contracture) [1, 3]: 26.7 min
- LVDP × HR (left ventricular developed pressure × heart rate) [1]: 74.3%
- IZ/AAR(%) myocardial infarction size to area at risk [2]: 42.5%

Compound: COC(OC)[C@]1(C)Oc2ccc([N+](=O)[O-])cc2[C@H](n2c(=S)oc3ccc(Cl)cc32)[C@H]1O [Example 7, (2R,3R,4S)-6-nitro-3,4-dihydro-3-hydroxy-2-dimethoxymethyl-2-methyl-4-(5-chloro-2-thioxobenzoxazol-3-yl)-2H-1-benzopyran]
- LDH (concentration of lactate dehydogenase) [1]: 21.1 unit/g
- EDP (left ventricular end diastolic pressure) [1]: 23.3 mmHg
- TTC (time to induce contraction / time to contracture) [1, 3]: 25.6 min
- LVDP × HR (left ventricular developed pressure × heart rate) [1]: 59.4%

Compound: COC(OC)[C@]1(C)Oc2ccc([N+](=O)[O-])cc2[C@H](n2c(=S)oc3cc([N+](=O)[O-])ccc32)[C@H]1O [Example 9, (2R,3R,4S)-6-nitro-3,4-dihydro-3-hydroxy-2-dimethoxymethyl-2-methyl-4-(6-nitro-2-thioxobenzoxazol-3-yl)-2H-1-benzopyran]
- TTC (time to induce contraction / time to contracture) [1]: 23.5 min
- LDH (concentration of lactate dehydogenase) [1]: 30.1 unit/g
- EDP (left ventricular end diastolic pressure) [1]: 27.0 mmHg
- LVDP × HR (left ventricular developed pressure × heart rate) [1]: 61.1%

Compound: COC(OC)[C@]1(C)Oc2ccc([N+](=O)[O-])cc2[C@H](n2c(=S)oc3ccc(C(F)(F)F)cc32)[C@H]1O [Example 16, (2R,3R,4S)-6-nitro-3,4-dihydro-3-hydroxy-2-dimethoxymethyl-2-methyl-4-(5-trifluoromethyl-2-thioxobenzoxazol-3-yl)-2H-1-benzopyran]
- EDP (left ventricular end diastolic pressure) [1]: 13.3 mmHg
- TTC (time to induce contraction / time to contracture) [1, 3]: 26.5 min
- LVDP × HR (left ventricular developed pressure × heart rate) [1]: 79.3%

Compound: COC(OC)[C@]1(C)Oc2ccc(N)cc2[C@@H](n2c(=S)oc3ccccc32)[C@@H]1O [Example 20, (2R,3S,4R)-6-amino-3,4-dihydro-3-hydroxy-2-dimethoxymethyl-2-methyl-4-(2-thioxobenzoxazol-3-yl)-2H-1-benzopyran]
- LDH (concentration of lactate dehydogenase) [1]: 3.9 unit/g
- EDP (left ventricular end diastolic pressure) [1]: 43.3 mmHg
- TTC (time to induce contraction / time to contracture) [1, 3]: 21.3 min
- LVDP × HR (left ventricular developed pressure × heart rate) [1]: 42.0%

Compound: COC(OC)[C@]1(C)Oc2ccc(NC(=O)C(F)(F)F)cc2[C@H](n2c(=S)oc3ccccc32)[C@H]1O [Example 36, (2R,3R,4S)-6-trifluoroacetylamino-3,4-dihydro-3-hydroxy-2-dimethoxymethyl-2-methyl-4-(2-thioxobenzoxazol-3-yl)-2H-1-benzopyran]
- EDP (left ventricular end diastolic pressure) [1]: 27.3 mmHg
- TTC (time to induce contraction / time to contracture) [1, 3]: 24.9 min
- LVDP × HR (left ventricular developed pressure × heart rate) [1]: 48.4%
